According to paper PMC10373199 (ACS Omega, 2023):
Converted amounts (≈) assume the structure as drawn. Like-named read-outs stand apart in the source and are kept apart here. Marks after values point to notes of the source that are not given here.

Columns and labels:
[1] = test system: Ishikawa cells; test: AlkP activity in Ishikawa cells; assay type: cell-based, human; details: 72 h, DMSO set to 1
[2] = test system: ovariectomized rats; test: Uterotrophic assay; assay type: in vivo, rat; details: 10 μg/kg BW/day s.c. for 3 days
[3] = test system: OVCAR-4; test: NCI five-dose screen, OVCAR-4; assay type: cell-based; details: Homo sapiens
[4] = test system: MALME-3M; test: NCI five-dose screen, MALME-3M; assay type: cell-based; details: Homo sapiens
[5] = test system: CCRF-CEM; test: NCI five-dose screen, CCRF-CEM; assay type: cell-based; details: Homo sapiens
[6] = test system: OVCAR-3; test: NCI five-dose screen, OVCAR-3; assay type: cell-based; details: Homo sapiens
[7] = test system: OVCAR-8; test: NCI five-dose screen, OVCAR-8; assay type: cell-based; details: Homo sapiens
[8] = test system: SF-295; test: NCI five-dose screen, SF-295; assay type: cell-based; details: Homo sapiens
[9] = test system: HS 578T; test: NCI five-dose screen, HS 578T; assay type: cell-based; details: Homo sapiens
[10] = test system: A549/ATCC; test: NCI five-dose screen, A549/ATCC; assay type: cell-based; details: Homo sapiens
[11] = test system: HT29; test: NCI five-dose screen, HT29; assay type: cell-based; details: Homo sapiens, HT-29
[12] = test system: IGROV1; test: NCI five-dose screen, IGROV1; assay type: cell-based; details: Homo sapiens, IGROV-1
[13] = test system: K-562; test: NCI five-dose screen, K-562; assay type: cell-based; details: Homo sapiens, K562
[14] = test system: HL-60 (TB); test: NCI five-dose screen, HL-60; assay type: cell-based; details: Homo sapiens
[15] = test system: TK-10; test: NCI five-dose screen, TK-10; assay type: cell-based; details: Homo sapiens
[16] = test system: NCI-H226; test: NCI five-dose screen, NCI-H226; assay type: cell-based; details: Homo sapiens
[17] = test system: SK-MEL-5; test: NCI five-dose screen, SK-MEL-5; assay type: cell-based; details: Homo sapiens
[18] = test system: SNB-75; test: NCI five-dose screen, SNB-75; assay type: cell-based; details: Homo sapiens
[19] = test system: RPMI-8226; test: NCI five-dose screen, RPMI-8226; assay type: cell-based; details: Homo sapiens
[20] = test system: KM12; test: NCI five-dose screen, KM12; assay type: cell-based; details: Homo sapiens
[21] = test system: HOP-92; test: NCI five-dose screen, HOP-92; assay type: cell-based; details: Homo sapiens
[22] = test system: PC-3; test: NCI five-dose screen, PC-3; assay type: cell-based; details: Homo sapiens
[23] = test system: RXF 393; test: NCI five-dose screen, RXF 393; assay type: cell-based; details: Homo sapiens
[24] = test system: MDA-MB-231/ATCC; test: NCI five-dose screen, MDA-MB-231/ATCC; assay type: cell-based; details: Homo sapiens
[25] = test system: A498; test: NCI five-dose screen, A498; assay type: cell-based; details: Homo sapiens
[26] = test system: CAKI-1; test: NCI five-dose screen, CAKI-1; assay type: cell-based; details: Homo sapiens
[27] = test system: M14; test: NCI five-dose screen, M14; assay type: cell-based; details: Homo sapiens
[28] = test system: SF-268; test: NCI five-dose screen, SF-268; assay type: cell-based; details: Homo sapiens
[29] = test system: OVCAR-5; test: NCI five-dose screen, OVCAR-5; assay type: cell-based; details: Homo sapiens
[30] = test system: SNB-19; test: NCI five-dose screen, SNB-19; assay type: cell-based; details: Homo sapiens
[31] = test system: NCI-H460; test: NCI five-dose screen, NCI-H460; assay type: cell-based; details: Homo sapiens
[32] = test system: NCI/ADR-RES; test: NCI five-dose screen, NCI/ADR-RES; assay type: cell-based; details: Homo sapiens
[33] = test system: HCT-116; test: NCI five-dose screen, HCT-116; assay type: cell-based; details: Homo sapiens
[34] = test system: SW-620; test: NCI five-dose screen, SW-620; assay type: cell-based; details: Homo sapiens
[35] = test system: HCC-2998; test: NCI five-dose screen, HCC-2998; assay type: cell-based; details: Homo sapiens
[36] = test system: EKVX; test: NCI five-dose screen, EKVX; assay type: cell-based; details: Homo sapiens
[37] = test system: HCT-15; test: NCI five-dose screen, HCT-15; assay type: cell-based; details: Homo sapiens
[38] = test system: SK-MEL-2; test: NCI five-dose screen, SK-MEL-2; assay type: cell-based; details: Homo sapiens
[39] = test system: U251; test: NCI five-dose screen, U251; assay type: cell-based; details: Homo sapiens, U-251
[40] = test system: SR; test: NCI five-dose screen, SR; assay type: cell-based; details: Homo sapiens
[41] = test system: NCI-H23; test: NCI five-dose screen, NCI-H23; assay type: cell-based; details: Homo sapiens
[42] = test system: MDA-MB-435; test: NCI five-dose screen, MDA-MB-435; assay type: cell-based; details: Homo sapiens
[43] = test system: NCI-H522; test: NCI five-dose screen, NCI-H522; assay type: cell-based; details: Homo sapiens
[44] = test system: SN12C; test: NCI five-dose screen, SN12C; assay type: cell-based; details: Homo sapiens
[45] = test system: SK-MEL-28; test: NCI five-dose screen, SK-MEL-28; assay type: cell-based; details: Homo sapiens
[46] = test system: UO-31; test: NCI five-dose screen, UO-31; assay type: cell-based; details: Homo sapiens
[47] = test system: NCI-H322M; test: NCI five-dose screen, NCI-H322M; assay type: cell-based; details: Homo sapiens
[48] = test system: MOLT-4; test: NCI five-dose screen, MOLT-4; assay type: cell-based; details: Homo sapiens
[49] = test system: UACC-62; test: NCI five-dose screen, UACC-62; assay type: cell-based; details: Homo sapiens
[50] = test system: 60 NCI tumor cell lines; test: NCI one-dose screen, mean over 60 tumor cell lines; assay type: cell-based; details: Homo sapiens, read-out: mean growth inhibition (%)
[51] = test system: DU-145; test: NCI five-dose screen, DU-145; assay type: cell-based; details: Homo sapiens
[52] = test system: COLO 205; test: NCI five-dose screen, COLO 205; assay type: cell-based; details: Homo sapiens
[53] = test system: UACC-257; test: NCI five-dose screen, UACC-257; assay type: cell-based; details: Homo sapiens
[54] = test system: ACHN; test: NCI five-dose screen, ACHN; assay type: cell-based; details: Homo sapiens
[55] = test system: 786–0; test: NCI five-dose screen, 786–0; assay type: cell-based; details: Homo sapiens
[56] = test system: BT-549; test: NCI five-dose screen, BT-549; assay type: cell-based; details: Homo sapiens
[57] = test system: MCF-7; test: NCI one-dose screen, MCF-7; assay type: cell-based; details: Homo sapiens, MCF7, read-out: growth inhibition on MCF-7 (%), 10 μM
[58] = test system: SK-OV-3; test: NCI five-dose screen, SK-OV-3; assay type: cell-based; details: Homo sapiens
[59] = test system: 60 different cell lines; test: NCI five-dose screen, mean/median over 60 cell lines; assay type: cell-based; details: Homo sapiens
[60] = test system: MCF7; test: NCI five-dose screen, MCF7; assay type: cell-based; details: Homo sapiens
[61] = test system: LOX IMVI; test: NCI five-dose screen, LOX IMVI; assay type: cell-based; details: Homo sapiens
[62] = test system: T-47D; test: NCI five-dose screen, T-47D; assay type: cell-based; details: Homo sapiens, T47D
[63] = test system: HOP-62; test: NCI five-dose screen, HOP-62; assay type: cell-based; details: Homo sapiens
[64] = test system: MDA-MB-468; test: NCI five-dose screen, MDA-MB-468; assay type: cell-based; details: Homo sapiens
[65] = test system: SF-539; test: NCI five-dose screen, SF-539; assay type: cell-based; details: Homo sapiens
[66] = in vitro; details: human
[67] = test system: EBOV; assay type: cell-based, Ebola virus; design: unit not given beside the values
[68] = test system: influenza A virus H1N1; test: Influenza A virus H1N1 screening, visual CPE inhibition; assay type: cell-based, influenza A virus H1N1 (California/07/2009)

For CC/C(=C(\c1ccc(O)cc1)c1ccc(OCCN(C)C)cc1)c1ccccc1 [Compound 4-OH-TAM, 4-hydroxytamoxifen], the AlkP activity ([1]; 1 μM) was 1.73 ± 0.46 and the AlkP activity ([1]; 10 μM) was 0.60 ± 0.20.

For C[C@]12CC[C@@H]3c4ccc(O)cc4CC[C@H]3[C@@H]1CC[C@@H]2O [Compound E2, 17β-estradiol], the “relative UWW, mean ± SD” value [2] was 3.85 ± 0.71 g/kg BW and the AlkP activity ([1]; 10 nM) was 6.86 ± 0.69 ^a.

In the case of CC/C(=C(\c1ccccc1)c1ccc(OCCN(C)C)cc1)c1ccccc1 [TAM, Tamoxifen], the GI50 [3] is reported as 6.31 µM, the GI50 [4] is reported as 3.16 µM and the GI50 [5] is reported as 3.16 µM. The GI50 [6] was 3.98 µM, the GI50 [7] was 7.94 µM and the GI50 [8] was 1.96 µM. For the same compound, the GI50 [9] was 3.98 µM, the GI50 [10] was 3.98 µM and the GI50 [11] was 2.51 µM. It also gave a GI50 [12] of 5.01 µM, a GI50 [13] of 1.99 µM and a GI50 [14] of 2.51 µM. For the same compound, the GI50 [15] was 3.98 µM, the GI50 [16] was 10 µM and the GI50 [17] was 2.51 µM. For the same compound, the GI50 [18] was 5.01 µM, the GI50 [19] was 2.51 µM and the AlkP activity ([1]; 1 μM) was 1.60 ± 0.55. It also gave an AlkP activity ([1]; 10 μM) of 1.02 ± 0.37, a GI50 [20] of 3.16 µM and a GI50 [21] of 2.52 µM. It also gave a GI50 [22] of 3.16 µM, a GI50 [23] of 2.51 µM and a GI50 [24] of 6.31 µM. The GI50 [25] was 6.31 µM, the GI50 [26] was 3.98 µM and the GI50 [27] was 2.51 µM. It also gave a GI50 [28] of 6.31 µM, a GI50 [29] of 6.31 µM and a GI50 [30] of 6.31 µM. The GI50 [31] was 3.16 µM, the GI50 [32] was 5.01 µM and the GI50 [33] was 3.98 µM. It also gave a GI50 [34] of 3.16 µM, a GI50 [35] of 3.16 µM and a GI50 [36] of 6.31 µM. The GI50 [37] was 3.16 µM, the GI50 [38] was 5.01 µM and the GI50 [39] was 3.16 µM. It also gave a GI50 [40] of 1.26 µM, a GI50 [41] of 5.01 µM and a GI50 [42] of 3.16 µM. It also gave a GI50 [43] of 6.31 µM, a GI50 [44] of 3.98 µM and a GI50 [45] of 3.98 µM. For the same compound, the GI50 [46] was 6.31 µM, the GI50 [47] was 7.94 µM and the GI50 [48] was 2.51 µM. The GI50 [49] was 6.31 µM, the inhibition at 10 µM [50] was at least 100% and the GI50 [51] was 6.31 µM. For the same compound, the GI50 [52] was 2.15 µM, the GI50 [53] was 3.16 µM and the GI50 [54] was 6.31 µM. The GI50 [55] was 3.98 µM, the GI50 [56] was 6.31 µM and the inhibition at 10 µM [57] was at least 100%. For the same compound, the GI50 [58] was 10 µM, the GI50 ([59]; read-out: GI50, mean) was 4.41 µM and the GI50 ([59]; read-out: GI50, median) was 3.98 µM. The GI50 [60] was 1.58 µM, the GI50 [61] was 2.51 µM and the GI50 [62] was 2.51 µM. The GI50 [63] was 10 µM, the GI50 [64] was 1.96 µM and the GI50 [65] was 5.01 µM.

With NC(=O)c1nc(F)c[nH]c1=O [favipiravir] the CC50 [66] was over 1000 µg/mL and the SI90 [67] was over 14.

For NC(=O)c1ncn([C@@H]2O[C@H](CO)[C@@H](O)[C@H]2O)n1 [ribavirin], the EC50 ([68]; Influenza A virus, H1N1, MDCK, read-out: EC50, visual CPE) was 1 µg/mL (≈ 4.09 µM) and the “SI50 (CC50/EC50)” value ([68]; visual CPE) was over 320 µg/mL.
